Measured values reported in paper PMC10247784, “Physiological activation of human and mouse bitter taste receptors by bile acids” (Communications Biology, 2023).

How the values were obtained:
mouse Tas2r105 = molecular target: T1, mouse Tas2r105 (Mus musculus, UniProt Q9JKT4); assay: Calcium imaging assay (FLIPR), HEK293T-Gα16gust44 cells transfected with mouse Tas2r105; type: cell-based
T1 construct: expressed in transfected cells; host or cells: HEK293T-Gα16gust44
T1 sequence (Q9JKT4 1-300): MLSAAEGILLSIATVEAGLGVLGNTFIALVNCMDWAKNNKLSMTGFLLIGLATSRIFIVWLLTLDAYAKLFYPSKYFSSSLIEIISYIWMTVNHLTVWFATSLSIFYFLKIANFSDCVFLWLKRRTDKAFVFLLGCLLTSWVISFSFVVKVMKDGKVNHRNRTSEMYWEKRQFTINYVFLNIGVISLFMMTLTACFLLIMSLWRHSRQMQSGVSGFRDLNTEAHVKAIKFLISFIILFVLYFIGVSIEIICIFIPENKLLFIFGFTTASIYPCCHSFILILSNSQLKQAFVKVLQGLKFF
Method: This set of bile acids was chosen because of their commercial availability in high purities, their diversity within the class of bile acids and their previous detection and quantitation in human blood. Stock solutions were prepared in DMSO.
As basal growth medium for the HEK293T-Gα16gust44 cell line[17],[59] served Dulbecco’s modified eagle medium (DMEM) (Thermo Fisher Scientific, Darmstadt, Germany) supplemented with 10 % fetal bovine serum (Sigma-Aldrich, Steinheim, Germany), 2 mM L-glutamine (Sigma-Aldrich, Steinheim, Germany), 100 units/ml penicillin (Sigma Aldrich, Steinheim, Germany) and 100 µg/ml streptomycin (Sigma Aldrich, Steinheim, Germany). Growth conditions were 37 °C, 5 % CO2 and saturated air-humidity[60].
HEK293T-Gα16gust44 cells were seeded on poly-D-lysine (10 µg/ml) coated 96-well plates to reach a confluence of 40-60 % the next day. For transient transfection 150 ng of plasmid DNA containing the receptor of interest and 0.3 µl lipofectamine 2000 (Thermo Fisher Scientific, Darmstadt, Germany) per well were used and transfection took place according to the manual of lipofectamine 2000. […] The empty vector DNA (mock) was transfected as negative control[14],[41].
Cells were loaded using the calcium-sensitive fluorescent dye Fluo-4-AM (Abcam, Cambridge, Great Britain) in the presence of 2.5 mM probenecid (Sigma-Aldrich, Steinheim, Germany) the day after transfection[13],[41]. 1 h after loading, cells were washed with C1 buffer using a BioTek Cell Washer, incubated in the dark for half an hour and washed again. For automated agonist application and measurement of fluorescence changes, a FLIPR^TETRA device (Molecular Devices, San José, United States) was used. Viability of cells was tested by application of 100 nM Somatostatin 14 (Bachem, Bubendorf, Switzerland)[42].
Measured data were negative control corrected by subtracting the signal of the mock-transfected cells and exported to Microsoft Excel using the FLIPR software ScreenWorks 4.2. In Microsoft Excel software, standardization of maximum fluorescence intensities to the basal fluorescence and normalization to the buffer-only control was done to calculate the relative fluorescence changes (ΔF/F).
Initial screening experiments performed in duplicate wells were confirmed by at least one replication and representative traces were selected for display. All dose-response relationships were determined by three independent experiments (biological replicates) performed in duplicates (technical replicates). Threshold concentrations, defined as lowest substance concentrations leading to statistically significant elevated fluorescence changes in receptor-transfected cells compared with empty vector-transfected cells, were determined using SigmaPlot with Student’s t-test to evaluate statistical significance (p < 0.01).

[1] = system: T2R02 of Latimeria chalumnae; design: method as in PMID 33355666; settings: cited from earlier work

C[C@H](CCC(=O)O)[C@H]1CC[C@H]2[C@@H]3CC[C@@H]4C[C@H](O)CC[C@]4(C)[C@H]3C[C@H](O)[C@]12C [Deoxycholic Acid, deoxycholic acid]
RLU (mouse Tas2r105; Time 0 s): 0 RLU
RLU (mouse Tas2r105; Time 2 s): -7.941 RLU
RLU (mouse Tas2r105; Time 4 s): 8.425 RLU
RLU (mouse Tas2r105; Time 6 s): -2.576 RLU
RLU (mouse Tas2r105; Time 8 s): 14.8013 RLU
RLU (mouse Tas2r105; Time 12 s): -9.724 RLU
RLU (mouse Tas2r105; Time 14 s): -8.452 RLU
RLU (mouse Tas2r105; Time 16 s): 1.889 RLU
RLU (mouse Tas2r105; Time 18 s): -2.18 RLU
RLU (mouse Tas2r105; Time 18.781 s): -20.0658 RLU
RLU (mouse Tas2r105; Time 20.781 s): -17.0266 RLU
RLU (mouse Tas2r105; Time 22.781 s): -39.9091 RLU
RLU (mouse Tas2r105; Time 24.781 s): 0.577 RLU
RLU (mouse Tas2r105; Time 26.781 s): -0.6161 RLU
RLU (mouse Tas2r105; Time 28.781 s): 4.903 RLU
RLU (mouse Tas2r105; Time 30.781 s): -6.367 RLU
RLU (mouse Tas2r105; Time 32.781 s): -0.4375 RLU
RLU (mouse Tas2r105; Time 34.781 s): 4.775 RLU
RLU (mouse Tas2r105; Time 36.781 s): -8.6591 RLU
RLU (mouse Tas2r105; Time 38.781 s): -14.3055 RLU
RLU (mouse Tas2r105; Time 40.781 s): 9.418 RLU
RLU (mouse Tas2r105; Time 42.781 s): -11.7018 RLU
RLU (mouse Tas2r105; Time 44.781 s): -11.9371 RLU
RLU (mouse Tas2r105; Time 46.781 s): 4.597 RLU
RLU (mouse Tas2r105; Time 48.781 s): 27.0511 RLU
RLU (mouse Tas2r105; Time 50.781 s): -9.756 RLU
RLU (mouse Tas2r105; Time 52.781 s): 20.1786 RLU
RLU (mouse Tas2r105; Time 54.781 s): 19.4961 RLU
RLU (mouse Tas2r105; Time 56.781 s): 5.269 RLU
RLU (mouse Tas2r105; Time 58.781 s): 38.5167 RLU
RLU (mouse Tas2r105; Time 60.781 s): 24.5618 RLU
RLU (mouse Tas2r105; Time 62.781 s): 36.5379 RLU
RLU (mouse Tas2r105; Time 64.781 s): 21.9337 RLU
RLU (mouse Tas2r105; Time 66.781 s): 35.0054 RLU
RLU (mouse Tas2r105; Time 68.781 s): 34.4928 RLU
RLU (mouse Tas2r105; Time 70.781 s): 42.8161 RLU
RLU (mouse Tas2r105; Time 72.781 s): 53.1321 RLU
RLU (mouse Tas2r105; Time 74.781 s): 54.3186 RLU
RLU (mouse Tas2r105; Time 76.781 s): 66.018 RLU
RLU (mouse Tas2r105; Time 78.781 s): 45.8125 RLU
RLU (mouse Tas2r105; Time 80.781 s): 59.5249 RLU
RLU (mouse Tas2r105; Time 82.781 s): 62.7416 RLU
RLU (mouse Tas2r105; Time 84.781 s): 68.7087 RLU
RLU (mouse Tas2r105; Time 86.781 s): 90.9377 RLU
RLU (mouse Tas2r105; Time 88.781 s): 81.07 RLU
RLU (mouse Tas2r105; Time 90.781 s): 72.636 RLU
RLU (mouse Tas2r105; Time 92.781 s): 97.4301 RLU
RLU (mouse Tas2r105; Time 94.781 s): 105.551 RLU
RLU (mouse Tas2r105; Time 96.781 s): 100.341 RLU
RLU (mouse Tas2r105; Time 98.781 s): 103.309 RLU
RLU (mouse Tas2r105; Time 100.781 s): 117.485 RLU
RLU (mouse Tas2r105; Time 102.781 s): 130.646 RLU
RLU (mouse Tas2r105; Time 104.781 s): 147.286 RLU
RLU (mouse Tas2r105; Time 106.781 s): 108.305 RLU
RLU (mouse Tas2r105; Time 108.781 s): 142.084 RLU
RLU (mouse Tas2r105; Time 110.781 s): 147.264 RLU
RLU (mouse Tas2r105; Time 112.781 s): 118.273 RLU
RLU (mouse Tas2r105; Time 114.781 s): 167.002 RLU
RLU (mouse Tas2r105; Time 116.781 s): 149.721 RLU
RLU (mouse Tas2r105; Time 118.781 s): 160.265 RLU
RLU (mouse Tas2r105; Time 120.781 s): 160.404 RLU
RLU (mouse Tas2r105; Time 122.781 s): 193.86 RLU
RLU (mouse Tas2r105; Time 124.781 s): 179.508 RLU
RLU (mouse Tas2r105; Time 126.781 s): 161.679 RLU
RLU (mouse Tas2r105; Time 128.781 s): 158.603 RLU
RLU (mouse Tas2r105; Time 130.781 s): 180.418 RLU
RLU (mouse Tas2r105; Time 132.781 s): 180.045 RLU
RLU (mouse Tas2r105; Time 134.781 s): 177.913 RLU
RLU (mouse Tas2r105; Time 136.781 s): 194.619 RLU
RLU (mouse Tas2r105; Time 137.562 s): 177.939 RLU
RLU (mouse Tas2r105; Time 143.562 s): 180.507 RLU
RLU (mouse Tas2r105; Time 149.562 s): 188.634 RLU
RLU (mouse Tas2r105; Time 155.562 s): 199.157 RLU
RLU (mouse Tas2r105; Time 161.562 s): 206.349 RLU
RLU (mouse Tas2r105; Time 167.562 s): 208.396 RLU
RLU (mouse Tas2r105; Time 173.562 s): 211.199 RLU
RLU (mouse Tas2r105; Time 179.562 s): 201.145 RLU
RLU (mouse Tas2r105; Time 185.562 s): 195.662 RLU
RLU (mouse Tas2r105; Time 191.562 s): 211.659 RLU
RLU (mouse Tas2r105; Time 197.562 s): 209.959 RLU
RLU (mouse Tas2r105; Time 203.562 s): 191.361 RLU
RLU (mouse Tas2r105; Time 209.562 s): 208.831 RLU
RLU (mouse Tas2r105; Time 215.562 s): 204.186 RLU
RLU (mouse Tas2r105; Time 221.562 s): 168.101 RLU
RLU (mouse Tas2r105; Time 227.562 s): 191.058 RLU
RLU (mouse Tas2r105; Time 233.562 s): 174.166 RLU
RLU (mouse Tas2r105; Time 239.562 s): 185.934 RLU
RLU (mouse Tas2r105; Time 245.562 s): 176.351 RLU
RLU (mouse Tas2r105; Time 293.562 s): 157.143 RLU
RLU (mouse Tas2r105; Time 299.562 s): 147.048 RLU
RLU (mouse Tas2r105; Time 305.562 s): 138.332 RLU
RLU (mouse Tas2r105; Time 311.562 s): 135.378 RLU
RLU (mouse Tas2r105; Time 317.562 s): 138.908 RLU
RLU (mouse Tas2r105; Time 323.562 s): 128.724 RLU
RLU (mouse Tas2r105; Time 329.562 s): 125.639 RLU
RLU (mouse Tas2r105; Time 335.562 s): 124.441 RLU
RLU (mouse Tas2r105; Time 341.562 s): 111.174 RLU
RLU (mouse Tas2r105; Time 347.562 s): 105.923 RLU
RLU (mouse Tas2r105; Time 353.562 s): 95.2183 RLU
RLU (mouse Tas2r105; Time 359.562 s): 94.5256 RLU
Activation threshold concentration Tas2r105 (mouse Tas2r105; p < 0.01 vs empty vector): 10 µM
Activation of T2R02 [1]: activate
